Reference: doi:10.1101/2021.02.13.431112v1 (bioRxiv, 2021)
pIC50: −log10 of the molar value.

Columns and labels:
SKOV3 cells = experiment: Confocal uptake of NBD-Def1; type: cell-based; details: confocal microscopy, 20, 6.6 or 2.2 ug/ml, 15 min, 37C, N=4
[1] = tested on: MCF-10A normal epithelial breast cells; experiment: Confocal uptake of NBD-Def1; type: cell-based; details: confocal microscopy, 5 times higher dose (200 mg/mL)
MDA-MB-231R cells = experiment: Confocal uptake of NBD-Def1; type: cell-based; details: confocal microscopy, 20, 6.6 or 2.2 ug/ml, 15 min, 37C, N=4
fibroblasts cells = experiment: Confocal uptake of NBD-Def1; type: cell-based; details: confocal microscopy, 5 times higher dose (200 mg/mL)
[2] = tested on: induced pluripotent stem cell derived cardiomyocytes (iPSC); experiment: MTT viability assay, IC-50; type: cell-based, human
[3] = tested on: Bone Marrow Cells MSC-001F; experiment: Viability assay, IC-50; type: cell-based; details: normal cells
MCF-10A Epithelial Cells = experiment: MTT viability assay, IC-50; type: cell-based; details: normal epithelial breast cells, 24 h
ASK1 = experiment: Immunoblot of ASK1 Thr845 phosphorylation; type: cell-based; details: 50 μM, 60 minutes, MDA-MB-231 cells, vs solvent control and NAC control, N=4
thioredoxin (Trx) = target: T1, thioredoxin (Trx) (Homo sapiens, UniProt P10599); experiment: Thioredoxin redox Western blot; type: cell-based; details: 20 μM Def1, Doxorubicin resistant MDA-MB-231-R cells, N=4
T1 sequence (P10599 1-105): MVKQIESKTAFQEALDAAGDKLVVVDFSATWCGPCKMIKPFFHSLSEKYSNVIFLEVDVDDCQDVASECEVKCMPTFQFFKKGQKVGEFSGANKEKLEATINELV

MCF-7R cells = experiment: Ceramide release by LC-MS/MS; type: cell-based; details: 20 μM, 6 hrs, Doxorubicin resistant MCF-7R cells, n=4, preliminary
[4] = 15N NMR chemical shift mapping of Def1 binding to GlcCer; details: 15N-labeled Def1, chemical shift perturbation, T1, 15N-1H NOE; N=3
BT-549 = details: read-out: IC-50, BT-549; unit printed only in neighbouring columns; ref 39b; cited from earlier work
MCF-7 = details: read-out: IC-50, MCF-7; unit printed only in neighbouring columns; ref 39b; cited from earlier work
MDA-MB-231 = details: read-out: IC-50, MDA-MB-231; unit printed only in neighbouring columns; ref 39b; cited from earlier work

6-((N-(7-nitrobenz-2-oxa-1, 3-diazol-4-yl) amino) hexanoyl (NBD)-Def1 [NBD-Def1]
uptake, SKOV3 (SKOV3 cells): concentration dependent uptake
uptake, normal epithelial breast cells MCF-10A [1]: did not pick up
uptake, MDA-MB-231R (MDA-MB-231R cells): concentration dependent uptake
uptake, fibroblasts (fibroblasts cells): did not pick up

COc1cccc2c1C(=O)c1c(O)c3c(c(O)c1C2=O)C[C@@](O)(C(=O)CO)C[C@@H]3O[C@H]1C[C@H](N)[C@H](O)[C@H](C)O1 [Doxorubicin, reference compound]
more potency for cardiomyocytes and bone marrow cells ([2]; in contrast to Def1): 10-15 times

Medicago sativa Defensin 1 [Def1]
IC-50, Bone Marrow Cells MSC-001F [3]: > 150 µM
IC-50, iPSC (induced pluripotent stem cell derived cardiomyocytes) ([2]; human iPSC cardiomyocytes, MTT, 24 h): > 180 µM
IC-50, MCF-10A Epithelial Cells (MCF-10A Epithelial Cells): > 200 µM
phosphorylation of Thr845 residue of ASK1 (ASK1): significant increase
oxidation of Trx (new band at 28 KDa) (thioredoxin (Trx)): oxidation of Trx
accumulation of ceramide (MCF-7R cells): enhanced accumulation of ceramide
binding to GlcCer [4]: binds to GlcCer at two regions

hBD-1: Human Beta Defensin (hBD-1) with three S-S bonds (DHYNCVSSGGQCLYSACPIFTKIQGTCYRGKAKCCK; Beta-defensin 1; UniProt P60022 33-68, looked up)
pIC50 (BT-549): 4.77
pIC50 (MCF-7): 4.68
pIC50 (MDA-MB-231): 4.74
